{"source": "ChEMBL document CHEMBL3044978", "about": "“Efficacy of acibenzolar-S-methyl and two strobilurins, azoxystrobin and trifloxystrobin, for the control of corky root of tomato and verticillium wilt of eggplant” (Crop Prot, 2006)", "key": {"Solanum melongena [1]": {"tested_on": "Solanum melongena", "experiment": "Phytotoxicity in Solanum melongena (eggplant) assessed as leaf chlorosis at 100 to 250 mg/l after 80 to 120 days under field condition", "format": "organism-based", "conditions": "in vivo"}, "Solanum melongena [2]": {"tested_on": "Solanum melongena", "experiment": "Phytotoxicity in Solanum melongena (eggplant) assessed as plant stunting at 87.5 to 100 mg/l after 80 days under greenhouse condition", "format": "organism-based", "conditions": "in vivo, 1920 h"}, "Solanum lycopersicum [3]": {"tested_on": "Solanum lycopersicum", "experiment": "Phytotoxicity in Solanum lycopersicum (tomato) plant assessed as leaf chlorosis at 100 to 250 mg/l after 120 days under field condition", "format": "organism-based", "conditions": "in vivo, 2880 h"}, "Verticillium dahliae [4]": {"tested_on": "Verticillium dahliae", "experiment": "Fungicidal activity against Verticillium dahliae infected eggplant assessed as vascular discoloration at 100 to 250 mg/l after 120 days under field condition relative to untreated control", "format": "functional, organism-based"}, "Verticillium dahliae [5]": {"tested_on": "Verticillium dahliae", "experiment": "Fungicidal activity against Verticillium dahliae infected eggplant assessed as wilted leaves at 87.5 to 100 mg/l after 80 days under greenhouse condition relative to untreated control", "format": "functional"}, "[6]": {"tested_on": "Pseudopyrenochaeta lycopersici", "experiment": "Fungicidal activity against Pyrenochaeta lycopersici infected tomato plant assessed as diseased root surface at 87.5 to 100 mg/l after 120 days under greenhouse condition relative to untreated control", "format": "functional"}, "[7]": {"tested_on": "Pseudopyrenochaeta lycopersici", "experiment": "Fungicidal activity against Pyrenochaeta lycopersici infected tomato plant assessed as diseased root surface at 100 to 250 mg/l after 100 days under field condition relative to untreated control", "format": "functional"}, "Solanum lycopersicum [8]": {"tested_on": "Solanum lycopersicum", "experiment": "Phytotoxicity in Solanum lycopersicum (tomato) plant assessed as plant stunting at 87.5 to 100 mg/l after 120 days under greenhouse condition", "format": "organism-based", "conditions": "in vivo, 2880 h"}, "Verticillium dahliae [9]": {"tested_on": "Verticillium dahliae", "experiment": "Fungicidal activity against Verticillium dahliae infected eggplant assessed as reduction in severity of external symptoms at 100 to 250 mg/l after 80 to 120 days under field condition relative to untreated control", "format": "functional", "parameters": "scale not given: the % may be the effect or the level left"}, "Solanum lycopersicum [10]": {"tested_on": "Solanum lycopersicum", "experiment": "Phytotoxicity in Solanum lycopersicum (tomato) plant assessed as plant stunting at 12.5 to 87.5 mg/l after 120 days under greenhouse condition", "format": "organism-based", "conditions": "in vivo, 2880 h"}, "Solanum melongena [11]": {"tested_on": "Solanum melongena", "experiment": "Induction of systemic acquired resistance activity in Solanum melongena (eggplant) infected with Verticillium dahliae assessed as vascular discoloration at 12.5 mg/l after 120 days under field condition relative to untreated control", "format": "functional, organism-based"}, "Solanum lycopersicum [12]": {"tested_on": "Solanum lycopersicum", "experiment": "Induction of systemic acquired resistance activity in Solanum lycopersicum (tomato) plant infected with Pyrenochaeta lycopersici assessed as diseased root surface at 12.5 mg/l after 100 days under field condition relative to untreated control", "format": "functional"}, "Solanum lycopersicum [13]": {"tested_on": "Solanum lycopersicum", "experiment": "Phytotoxicity in Solanum lycopersicum (tomato) plant assessed as leaf chlorosis at 12.5 mg/l after 120 days under field condition", "format": "organism-based", "conditions": "in vivo, 2880 h"}, "Solanum melongena [14]": {"tested_on": "Solanum melongena", "experiment": "Phytotoxicity in Solanum melongena (eggplant) assessed as plant stunting at 12.5 to 87.5 mg/l after 80 days under greenhouse condition", "format": "organism-based", "conditions": "in vivo, 1920 h"}, "Solanum melongena [15]": {"tested_on": "Solanum melongena", "experiment": "Phytotoxicity in Solanum melongena (eggplant) assessed as leaf chlorosis at 12.5 mg/l after 80 to 120 days under field condition", "format": "organism-based", "conditions": "in vivo"}, "Solanum melongena [16]": {"tested_on": "Solanum melongena", "experiment": "Induction of systemic acquired resistance activity in Solanum melongena (eggplant) infected with Verticillium dahliae assessed as reduction in severity of external symptoms at 12.5 mg/l after 80 to 120 days under field condition relative to untreated control", "format": "functional", "parameters": "scale not given: the % may be the effect or the level left"}, "Solanum melongena [17]": {"tested_on": "Solanum melongena", "experiment": "Phytotoxicity in Solanum melongena (eggplant) assessed as leaf chlorosis at 12.5 to 87.5 mg/l after 80 days under greenhouse condition", "format": "organism-based", "conditions": "in vivo, 1920 h"}, "Solanum lycopersicum [18]": {"tested_on": "Solanum lycopersicum", "experiment": "Phytotoxicity in Solanum lycopersicum (tomato) plant assessed as leaf chlorosis at 12.5 to 87.5 mg/l after 120 days under greenhouse condition", "format": "organism-based", "conditions": "in vivo, 2880 h"}, "Solanum lycopersicum [19]": {"tested_on": "Solanum lycopersicum", "experiment": "Phytotoxicity in Solanum lycopersicum (tomato) plant assessed as plant stunting during early growth stage after 120 days under field condition", "format": "organism-based", "conditions": "in vivo, 2880 h"}, "Verticillium dahliae [20]": {"tested_on": "Verticillium dahliae", "experiment": "Fungicidal activity against Verticillium dahliae infected eggplant assessed as reduction in severity of external symptoms applied as one soil drench and two foliar sprays post transplanting after 80 to 120 days under field condition relative to untreated control", "format": "functional", "parameters": "scale not given: the % may be the effect or the level left"}, "Solanum melongena [21]": {"tested_on": "Solanum melongena", "experiment": "Phytotoxicity in Solanum melongena (eggplant) assessed as plant stunting during early growth stage after 80 to 120 days under field condition", "format": "organism-based", "conditions": "in vivo"}, "Verticillium dahliae [22]": {"tested_on": "Verticillium dahliae", "experiment": "(§1) Fungicidal activity against Verticillium dahliae infected eggplant assessed as vascular discoloration applied as dipping of seedling roots into fungicide water suspension before transplanting and one soil drench post transplanting after 120 days under field condition relative to untreated control", "format": "functional, organism-based"}, "Verticillium dahliae [23]": {"tested_on": "Verticillium dahliae", "experiment": "Fungicidal activity against Verticillium dahliae infected eggplant assessed as wilted leaves after 80 days under greenhouse condition relative to untreated control", "format": "functional"}, "[24]": {"tested_on": "Pseudopyrenochaeta lycopersici", "experiment": "(§2) Fungicidal activity against Pyrenochaeta lycopersici infected tomato plant assessed as diseased root surface applied as dipping of seedling roots into fungicide water suspension before transplanting and two soil drenches post transplanting after 100 days under field condition relative to untreated control", "format": "functional"}, "Verticillium dahliae [25]": {"tested_on": "Verticillium dahliae", "experiment": "as §1, with “reduction in severity of external symptoms” for “vascular discoloration”, “after 80 to” for “after”", "format": "functional", "parameters": "scale not given: the % may be the effect or the level left"}, "Solanum lycopersicum [26]": {"tested_on": "Solanum lycopersicum", "experiment": "Phytotoxicity in Solanum lycopersicum (tomato) plant assessed as plant stunting after 120 days under greenhouse condition", "format": "organism-based", "conditions": "in vivo, 2880 h"}, "Verticillium dahliae [27]": {"tested_on": "Verticillium dahliae", "experiment": "as §1, with “reduction in severity of external symptoms” for “vascular discoloration”, “two” for “one”, “drenches” for “drench”, “after 80 to” for “after”", "format": "functional", "parameters": "scale not given: the % may be the effect or the level left"}, "[28]": {"tested_on": "Pseudopyrenochaeta lycopersici", "experiment": "as §2, with “one” for “two”, “drench” for “drenches”", "format": "functional"}, "[29]": {"tested_on": "Pseudopyrenochaeta lycopersici", "experiment": "Fungicidal activity against Pyrenochaeta lycopersici infected tomato plant assessed as diseased root surface applied as one soil drench and two foliar sprays post transplanting after 100 days under field condition relative to untreated control", "format": "functional"}, "[30]": {"tested_on": "Pseudopyrenochaeta lycopersici", "experiment": "Fungicidal activity against Pyrenochaeta lycopersici infected tomato plant assessed as diseased root surface after 120 days under greenhouse condition relative to untreated control", "format": "functional"}, "Verticillium dahliae [31]": {"tested_on": "Verticillium dahliae", "experiment": "Fungicidal activity against Verticillium dahliae infected eggplant assessed as vascular discoloration applied as dipping of seedling roots into fungicide water suspension before transplanting and two soil drenches post transplanting after 120 days under field condition relative to untreated control", "format": "functional, organism-based"}, "Solanum melongena [32]": {"tested_on": "Solanum melongena", "experiment": "Phytotoxicity in Solanum melongena (eggplant) assessed as plant stunting after 80 days under greenhouse condition", "format": "organism-based", "conditions": "in vivo, 1920 h"}, "Verticillium dahliae [33]": {"tested_on": "Verticillium dahliae", "experiment": "Fungicidal activity against Verticillium dahliae infected eggplant assessed as vascular discoloration applied as one soil drench and two foliar sprays post transplanting after 120 days under field condition relative to untreated control", "format": "functional, organism-based"}}, "note": "The source made the active and inactive calls. No cut-off for these calls is given here.", "data": [{"smiles": "CO/N=C(\\C(=O)OC)c1ccccc1CO/N=C(\\C)c1cccc(C(F)(F)F)c1", "values": [{"measurement": "Activity", "setting": "Solanum melongena [1]", "value": "Non-toxic"}, {"measurement": "Activity", "setting": "Solanum melongena [2]", "value": "Non-toxic"}, {"measurement": "Activity", "setting": "Solanum lycopersicum [3]", "value": "Non-toxic"}, {"measurement": "Activity", "setting": "Verticillium dahliae [4]", "value": "inactive"}, {"measurement": "Activity", "setting": "Verticillium dahliae [5]", "value": 78.1, "unit": "%"}, {"measurement": "Activity", "setting": "[6]", "value": 93.3, "unit": "%"}, {"measurement": "Activity", "setting": "[7]", "value": 48.7, "unit": "%"}, {"measurement": "Activity", "setting": "Solanum lycopersicum [8]", "value": "Non-toxic"}, {"measurement": "Activity", "setting": "Verticillium dahliae [9]", "value": 17.6, "unit": "%"}]}, {"smiles": "CSC(=O)c1cccc2nnsc12", "note": "[ACIBENZOLAR-S-METHYL]", "values": [{"measurement": "Activity", "setting": "Solanum lycopersicum [10]", "value": "Toxic"}, {"measurement": "Activity", "setting": "Solanum melongena [11]", "value": "inactive"}, {"measurement": "Activity", "setting": "Solanum lycopersicum [12]", "value": 62.7, "unit": "%"}, {"measurement": "Activity", "setting": "Solanum lycopersicum [13]", "value": "Non-toxic"}, {"measurement": "Activity", "setting": "Solanum melongena [14]", "value": "Toxic"}, {"measurement": "Activity", "setting": "Solanum melongena [15]", "value": "Non-toxic"}, {"measurement": "Activity", "setting": "Solanum melongena [16]", "value": 6.9, "unit": "%"}, {"measurement": "Activity", "setting": "Solanum melongena [17]", "value": "Toxic"}, {"measurement": "Activity", "setting": "Solanum lycopersicum [18]", "value": "Toxic"}]}, {"smiles": "CO/C=C(/C(=O)OC)c1ccccc1Oc1cc(Oc2ccccc2C#N)ncn1", "note": "[AZOXYSTROBIN]", "values": [{"measurement": "Activity", "setting": "Solanum lycopersicum [19]", "value": "Toxic"}, {"measurement": "Activity", "setting": "Verticillium dahliae [20]", "value": 24.6, "unit": "%"}, {"measurement": "Activity", "setting": "Solanum melongena [21]", "value": "Toxic"}, {"measurement": "Activity", "setting": "Verticillium dahliae [22]", "value": "inactive"}, {"measurement": "Activity", "setting": "Verticillium dahliae [23]", "value": 95.1, "unit": "%"}, {"measurement": "Activity", "setting": "[24]", "value": 83.7, "unit": "%"}, {"measurement": "Activity", "setting": "Verticillium dahliae [25]", "value": 29.4, "unit": "%"}, {"measurement": "Activity", "setting": "Solanum lycopersicum [26]", "value": "Toxic"}, {"measurement": "Activity", "setting": "Verticillium dahliae [27]", "value": 24.6, "unit": "%"}, {"measurement": "Activity", "setting": "[28]", "value": 73.5, "unit": "%"}, {"measurement": "Activity", "setting": "[29]", "value": 81.7, "unit": "%"}, {"measurement": "Activity", "setting": "[30]", "value": 98.3, "unit": "%"}, {"measurement": "Activity", "setting": "Verticillium dahliae [31]", "value": "inactive"}, {"measurement": "Activity", "setting": "Solanum melongena [32]", "value": "Toxic"}, {"measurement": "Activity", "setting": "Verticillium dahliae [33]", "value": "inactive"}]}]}
